Data published in PubChem BioAssay AID2060884 (Molecular Pharmacology Branch, DTP, NCI, 2025).
One block for each compound: values may come before it.

System: NCI-H929 complex spheroids, viability % test/control
Assay: Anticancer human tumor NCI-H929 cell line growth inhibition [RAS];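 further: compound exposure lasted seven days before viability was read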;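 on viability, T/C: 100% = DMSO vehicle control viability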
Details: for IC50: curve of first compound; for viability, T/C: stronger effect = lower value
Method in brief: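 Tumour cells grown as complex spheroids with HUVEC endothelial cells and mesenchymal stem cells, treated with RAS pathway inhibitor combinations. Each agent spans half-log steps from near clinical Cmax, or 10 microM where Cmax is unknown.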

[1] = second compound 0.000949 µM, first compound 0.0316 µM
[2] = second compound 0.000949 µM, first compound 0.1 µM
[3] = second compound 0.000949 µM, first compound 0.316 µM
[4] = second compound 0.000949 µM, first compound 1 µM
[5] = second compound 0.000949 µM, first compound 3.16 µM
[6] = second compound 0.000949 µM, first compound 10 µM
[7] = second compound 0.003 µM, first compound 0.0316 µM
[8] = second compound 0.003 µM, first compound 0.1 µM
[9] = second compound 0.003 µM, first compound 0.316 µM
[10] = second compound 0.003 µM, first compound 1 µM
[11] = second compound 0.003 µM, first compound 3.16 µM
[12] = second compound 0.003 µM, first compound 10 µM
[13] = second compound 0.00949 µM, first compound 0.0316 µM
[14] = second compound 0.00949 µM, first compound 0.1 µM
[15] = second compound 0.00949 µM, first compound 0.316 µM
[16] = second compound 0.00949 µM, first compound 1 µM
[17] = second compound 0.00949 µM, first compound 3.16 µM
[18] = second compound 0.00949 µM, first compound 10 µM
[19] = second compound 0.03 µM, first compound 0.0316 µM
[20] = second compound 0.03 µM, first compound 0.1 µM
[21] = second compound 0.03 µM, first compound 0.316 µM
[22] = second compound 0.03 µM, first compound 1 µM
[23] = second compound 0.03 µM, first compound 3.16 µM
[24] = second compound 0.03 µM, first compound 10 µM
[25] = second compound 0.0949 µM, first compound 0.0316 µM
[26] = second compound 0.0949 µM, first compound 0.1 µM
[27] = second compound 0.0949 µM, first compound 0.316 µM
[28] = second compound 0.0949 µM, first compound 1 µM
[29] = second compound 0.0949 µM, first compound 3.16 µM
[30] = second compound 0.0949 µM, first compound 10 µM
[31] = second compound 0.3 µM, first compound 0.0316 µM
[32] = second compound 0.3 µM, first compound 0.1 µM
[33] = second compound 0.3 µM, first compound 0.316 µM
[34] = second compound 0.3 µM, first compound 1 µM
[35] = second compound 0.3 µM, first compound 3.16 µM
[36] = second compound 0.3 µM, first compound 10 µM

IC50 (second compound 0.000949 µM): < 0.0316 µM
IC50 (second compound 0.003 µM): < 0.0316 µM
IC50 (second compound 0.00949 µM): < 0.0316 µM
IC50 (second compound 0.03 µM): < 0.0316 µM
IC50 (second compound 0.0949 µM): < 0.0316 µM
IC50 (second compound 0.3 µM): < 0.0316 µM
SMILES: CC(=O)OC12COC1CC(O)C1(C)C(=O)C(O)C3=C(C)C(OC(=O)C(O)C(NC(=O)OC(C)(C)C)c4ccccc4)CC(O)(C(OC(=O)c4ccccc4)C21)C3(C)C (centres undefined) + CCn1c(-c2cc(N3CCN(C)CC3)cnc2C(C)OC)c2c3cc(ccc31)-c1csc(n1)CC(NC(=O)C1CC1C)C(=O)N1CCCC(N1)C(=O)OCC(C)(C)C2
viability, T/C [1]: 0.9%
viability, T/C [2]: 0.92%
viability, T/C [3]: 1.34%
viability, T/C [4]: 1.14%
viability, T/C [5]: 1.74%
viability, T/C [6]: 1.22%
viability, T/C [7]: 1.12%
viability, T/C [8]: 1.88%
viability, T/C [9]: 1.04%
viability, T/C [10]: 0.64%
viability, T/C [11]: 1.46%
viability, T/C [12]: 0.97%
viability, T/C [13]: 1.36%
viability, T/C [14]: 1.42%
viability, T/C [15]: 1.07%
viability, T/C [16]: 1.07%
viability, T/C [17]: 0.91%
viability, T/C [18]: 1.16%
viability, T/C [19]: 1.81%
viability, T/C [20]: 0.83%
viability, T/C [21]: 0.75%
viability, T/C [22]: 1.71%
viability, T/C [23]: 0.99%
viability, T/C [24]: 1.17%
viability, T/C [25]: 1.09%
viability, T/C [26]: 0.75%
viability, T/C [27]: 0.6%
viability, T/C [28]: 0.56%
viability, T/C [29]: 1.05%
viability, T/C [30]: 0.51%
viability, T/C [31]: 0.99%
viability, T/C [32]: 0.51%
viability, T/C [33]: 0.87%
viability, T/C [34]: 0.72%
viability, T/C [35]: 0.64%
viability, T/C [36]: 0.46%

IC50 (second compound 0.000949 µM): > 10 µM
IC50 (second compound 0.003 µM): > 10 µM
IC50 (second compound 0.00949 µM): > 10 µM
IC50 (second compound 0.03 µM): > 10 µM
IC50 (second compound 0.0949 µM): > 10 µM
IC50 (second compound 0.3 µM): > 10 µM
SMILES: Cc1nc(N2CCC3(CC2)COC(C)C3N)c(CO)nc1Sc1ccnc(N)c1Cl (centres undefined) + CCn1c(-c2cccnc2C(C)OC)c2c3cc(ccc31)N1CCOC(CC(NC(=O)C(C(C)C)N(C)C(=O)C3(F)CCN(C(=O)C#CC(C)(C)N(C)C)CC3)C(=O)N3CCCC(N3)C(=O)OCC(C)(C)C2)C1
viability, T/C [1]: 108%
viability, T/C [2]: 99.1%
viability, T/C [3]: 102%
viability, T/C [4]: 102%
viability, T/C [5]: 102%
viability, T/C [6]: 97.8%
viability, T/C [7]: 103%
viability, T/C [8]: 105%
viability, T/C [9]: 102%
viability, T/C [10]: 101%
viability, T/C [11]: 103%
viability, T/C [12]: 99.5%
viability, T/C [13]: 102%
viability, T/C [14]: 101%
viability, T/C [15]: 108%
viability, T/C [16]: 100%
viability, T/C [17]: 104%
viability, T/C [18]: 102%
viability, T/C [19]: 99.4%
viability, T/C [20]: 103%
viability, T/C [21]: 103%
viability, T/C [22]: 99.8%
viability, T/C [23]: 106%
viability, T/C [24]: 104%
viability, T/C [25]: 104%
viability, T/C [26]: 97.1%
viability, T/C [27]: 98.2%
viability, T/C [28]: 101%
viability, T/C [29]: 98.2%
viability, T/C [30]: 95.7%
viability, T/C [31]: 102%
viability, T/C [32]: 103%
viability, T/C [33]: 101%
viability, T/C [34]: 99.7%
viability, T/C [35]: 98.2%
viability, T/C [36]: 95.5%
